From US20080269298A1, “Benzimidazol-1-YL-thiophene compounds for the treatment of cancer” (priority 2002, published 2008) come the findings set out here.

Where only a bound is given, the exact number is not on record here.

One assay addresses T1, PLK1 kinase domain (Homo sapiens, UniProt P53350).
T1 construct: made in house; host or cells: baculovirus-infected T. ni insect cells
The experiment in a line: Assay for Inhibition of PLK1 (SPA enzyme activity). It counts as biochemical. Particulars: 2 μM ATP, read-out: Ave pIC50 PLK Enzyme Inhibition (converted).

Assay [1] deals with lung (H460) tumor cell line. The experiment in a line: Methylene Blue Growth Inhibition Assay, H460. It counts as cell-based. The note with it: Homo sapiens, NCI-H460, 72 h; Cell Line H460, 3 days; read-out: MeB IC50. In outline:
(§1)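 Methylene blue dye retained by cells after a 3-day, 37° C compound incubation in DMEM/10% FBS (0.3% DMSO) served as the biomass readout at 620 nm. IC50 values were interpolated by nonlinear regression against vehicle wells.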

Assay [2] deals with colon (HCT116) tumor cell line. The experiment in a line: Methylene Blue Growth Inhibition Assay, HCT116. It counts as cell-based. Particulars: Homo sapiens, HCT-116, 72 h; Cell Line HCT116, 3 days; read-out: MeB IC50. In outline:
(§2)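 Growth inhibition is measured as methylene blue-stained biomass (OD 620 nm) after 3 days of compound treatment, relative to vehicle controls. Cells grow in high-glucose DMEM with 10% FBS and 0.3% final DMSO; IC50 comes from nonlinear regression.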

For assay [3], the system named is Normal Human foreskin fibroblasts (HFF). The experiment in a line: Methylene Blue Growth Inhibition Assay, HFF. It counts as cell-based. The note with it: 72 h, Cell Line HFF, 3 days, read-out: MeB IC50. In outline: as §1
Assay [4] concerns breast tumor (MCF7) cell line. The experiment in a line: Methylene Blue Growth Inhibition Assay, MCF7. It counts as cell-based. Particulars: Homo sapiens, 72 h; Cell Line MCF7, 3 days; read-out: MeB IC50. In outline: as §2
The test system of assay [5] is prostate (PC3) tumor cell line. The experiment in a line: Methylene Blue Growth Inhibition Assay, PC3. It counts as cell-based. The note with it: Homo sapiens, 72 h; Cell Line PC3, 3 days; read-out: MeB IC50. In outline:
as §2

The subject of assay [6] is colon (RKO) tumor cell line. The experiment in a line: Methylene Blue Growth Inhibition Assay, RKO. It counts as cell-based. Particulars: Homo sapiens, 72 h, 3 days, read-out: MeB IC50. In outline: as §1

T1 sequence (P53350 21-346): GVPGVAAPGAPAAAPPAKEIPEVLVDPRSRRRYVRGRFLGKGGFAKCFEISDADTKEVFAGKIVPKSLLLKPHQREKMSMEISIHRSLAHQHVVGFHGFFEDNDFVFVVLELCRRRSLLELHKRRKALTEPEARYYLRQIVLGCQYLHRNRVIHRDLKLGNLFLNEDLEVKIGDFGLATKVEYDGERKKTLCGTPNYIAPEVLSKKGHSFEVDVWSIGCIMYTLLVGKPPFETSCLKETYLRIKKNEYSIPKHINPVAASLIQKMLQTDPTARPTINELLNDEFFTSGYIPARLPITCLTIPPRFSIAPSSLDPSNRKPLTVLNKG

With `COc1cc2ncn(-c3cc(OCc4ccccc4Br)c(C(=O)O)s3)c2cc1OC` [Example 76, 3-[(2-Bromobenzyl)oxy]-5-(5,6-dimethoxy-1H-benzimidazol-1-yl)thiophene-2-carboxylic acid], the IC50 was less than 0.1 µM at PLK1 kinase domain; greater than 10 µM in assay [1]; greater than 10 µM in assay [2]; greater than 10 µM in assay [3]; greater than 10 µM in assay [4]; greater than 10 µM in assay [5]. Besides, in assay [6], the IC50 is greater than 10 µM.

Turning to `NC(=O)c1sc(-n2cnc3ccccc32)cc1CCc1ccccc1` [Example 130, 5-(1H-Benzimidazol-1-yl)-3-(2-phenylethyl)thiophene-2-carboxamide], the IC50 was 0.1 to 10 µM on PLK1 kinase domain; greater than 10 µM in assay [1]; 1 to 10 µM in assay [2]; greater than 10 µM in assay [3]; 1 to 10 µM in assay [4]; greater than 10 µM in assay [5]. Also, the IC50 in assay [6] was 1 to 10 µM.

Consider `O=C(O)c1sc(-n2cnc3ccc(Br)cc32)cc1OCc1ccccc1C(F)(F)F` [Example 74, 5-(6-Bromo-1H-benzimidazol-1-yl)-3-{[2-(trifluoromethyl)-benzyl]oxy}thiophene-2-carboxylic acid], for which the IC50 at PLK1 kinase domain is less than 0.1 µM; in assay [1], 1 to 10 µM; in assay [2], greater than 10 µM; in assay [3] it was greater than 10 µM; in assay [4], greater than 10 µM; in assay [5], greater than 10 µM. Also, the IC50 in assay [6] was greater than 10 µM.

Take `CS(=O)(=O)N1CCC(COc2cc(-n3cnc4cc5c(cc43)OCCO5)sc2C(N)=O)CC1` [Example 124, 5-(6,7-Dihydro-1H-[1,4]dioxino[2,3-f]benzimidazol-1-yl)-3-{[1-(methylsulfonyl)-piperidin-4-yl]methoxy}thiophene-2-carboxamide]: the IC50 is 0.1 to 10 µM on PLK1 kinase domain; greater than 10 µM in assay [1]; greater than 10 µM in assay [2]; greater than 10 µM in assay [3]; greater than 10 µM in assay [4]; greater than 10 µM in assay [5]. Also, the IC50 in assay [6] was greater than 10 µM.

Regarding `COc1cc2ncn(-c3cc(OS(=O)(=O)c4ccccc4C)c(C(=O)O)s3)c2cc1OC` [Example 151, 5-(5,6-Dimethoxy-1H-benzimidazol-1-yl)-3-{[(2-methylphenyl)sulfonyl]oxy}thiophene-2-carboxylic acid], the IC50 is less than 0.1 µM at PLK1 kinase domain; greater than 10 µM in assay [1]; greater than 10 µM in assay [2]; greater than 10 µM in assay [3]; greater than 10 µM in assay [4]; greater than 10 µM in assay [5]. For the same molecule, in assay [6], the IC50 is greater than 10 µM.

Regarding `CC(=O)c1sc(-n2cnc3ccc(Cl)cc32)cc1OCc1ccccc1C` [Example 39, 1-{5-(6-Chloro-1H-benzimidazol-1-yl)-3-[(2-methylbenzyl)oxy]thien-2-yl}ethanone], the IC50 on PLK1 kinase domain is 0.1 to 10 µM; in assay [1], greater than 10 µM; in assay [2] it was greater than 10 µM; in assay [3] it was greater than 10 µM; in assay [4] it was greater than 10 µM; in assay [5], greater than 10 µM. In addition, the IC50 in assay [6] was greater than 10 µM.

For `COc1cc2ncn(-c3cc(OS(=O)(=O)c4ccccc4[N+](=O)[O-])c(C(N)=O)s3)c2cc1OC` [Example 153, 2-(Aminocarbonyl)-5-(5,6-dimethoxy-1H-benzimidazol-1-yl)thien-3-yl 2-nitrobenzenesulfonate], the IC50 on PLK1 kinase domain was less than 0.1 µM; in assay [1], greater than 10 µM; in assay [2] it was greater than 10 µM; in assay [3], greater than 10 µM; in assay [4] it was greater than 10 µM; in assay [5], greater than 10 µM. Besides, the IC50 in assay [6] was greater than 10 µM.

Turning to `CC(Oc1cc(-n2cnc3cc(N)ccc32)sc1C(N)=O)c1ccccc1Cl` (centres unmarked) [Example 157, 5-(5-Amino-1H-benzimidazol-1-yl)-3-[1-(2-chlorophenyl)ethoxy]thiophene-2-carboxamide], the IC50 on PLK1 kinase domain is less than 0.1 µM; in assay [1], less than 1 µM; in assay [2], less than 1 µM; in assay [3], greater than 10 µM; in assay [4], less than 1 µM; in assay [5] it was less than 1 µM. Moreover, in assay [6], the IC50 was less than 1 µM.

Take `NC(=O)c1sc(-n2cnc3ccccc32)cc1OCc1ccccc1[N+](=O)[O-]` [Example 117, 5-(1H-Benzimidazol-1-yl)-3-[(2-nitrobenzyl)oxy]thiophene-2-carboxamide]: the IC50 was less than 0.1 µM on PLK1 kinase domain; less than 1 µM in assay [1]; less than 1 µM in assay [2]; greater than 10 µM in assay [3]; less than 1 µM in assay [4]; 1 to 10 µM in assay [5]. Besides, the IC50 in assay [6] was less than 1 µM.

As for `COc1cc2ncn(-c3cc(OCCN4CCOCC4)c(C(N)=O)s3)c2cc1OC` [Example 113, 5-(5,6-Dimethoxy-1H-benzimidazol-1-yl)-3-(2-morpholin-4-ylethoxy)thiophene-2-carboxamide], the IC50 on PLK1 kinase domain was 0.1 to 10 µM; in assay [1], greater than 10 µM; in assay [2], greater than 10 µM; in assay [3] it was greater than 10 µM; in assay [4] it was greater than 10 µM; in assay [5] it was greater than 10 µM. Moreover, the IC50 in assay [6] is greater than 10 µM.

As to `NC(=O)c1sc(-n2cnc3cc4c(cc32)OCCO4)cc1OCc1ccccc1C(F)(F)F` [Example 123, 5-(6,7-Dihydro-1H-[1,4]dioxino[2,3f]benzimidazol-1-yl)-3-{[2-(trifluoromethyl)benzyl]-oxy}thiophene-2-carboxamide], the IC50 at PLK1 kinase domain is less than 0.1 µM; in assay [1] it was 1 to 10 µM; in assay [2], 1 to 10 µM; in assay [3] it was 1 to 10 µM; in assay [4] it was 1 to 10 µM; in assay [5] it was greater than 10 µM. Besides, the IC50 in assay [6] was in the range of 1 to 10 µM.

On to `C#Cc1ccccc1COc1cc(-n2cnc3cc(OC)c(OC)cc32)sc1C(N)=O` [Example 106, 5-(5,6-Dimethoxy-1H-benzimidazol-1-yl)-3-[(2-ethynylbenzyl)oxy]thiophene-2-carboxamide], for which the IC50 is less than 0.1 µM at PLK1 kinase domain; 1 to 10 µM in assay [1]; 1 to 10 µM in assay [2]; greater than 10 µM in assay [3]; 1 to 10 µM in assay [4]; greater than 10 µM in assay [5]. The IC50 in assay [6] was 1 to 10 µM.

On to `COc1ccc2ncn(-c3cc(OCc4ccccc4C(F)(F)F)c(C(N)=O)s3)c2c1` [Example 118], for which the IC50 at PLK1 kinase domain was less than 0.1 µM; in assay [1], less than 1 µM; in assay [2], 1 to 10 µM; in assay [3], 1 to 10 µM; in assay [4] it was less than 1 µM; in assay [5], greater than 10 µM. For the same molecule, in assay [6], the IC50 is less than 1 µM.

Take `NC(=O)c1sc(-n2c(N)nc3ccccc32)cc1OCc1ccccc1C(F)(F)F` [Example 148, 5-(2-Amino-1H-benzimidazol-1-yl)-3-{[2-(trifluoromethyl)benzyl]oxy}thiophene-2-carboxamide]: the IC50 on PLK1 kinase domain was 0.1 to 10 µM; in assay [1], 1 to 10 µM; in assay [2], 1 to 10 µM; in assay [3], greater than 10 µM; in assay [4] it was 1 to 10 µM; in assay [5], greater than 10 µM. In addition, in assay [6], the IC50 lay in the range of 1 to 10 µM.
